Key:
[1] = tested on: idiopathic pulmonary fibrosis (bleomycin); experiment: Bleomycin IPF model: lung histology, Masson's Trichrome with Ashcroft scoring; type: in vivo, C57BI/6J mice; details: for Ashcroft scores relative to IPF control group: Day 21
Method: Animals were acclimated for two weeks prior to study initiation, and were randomized into the experimental groups outlined in Table 32. Intratracheal (IT) administration of Bleo or PBS control was conducted at the start of the study (Day 0). […] Following administration of Bleo, animals (n=10/group) were included in the study if they met the following guidelines on Day 7: […] A resection of the right lung was weighed and homogenized to determine total hydroxyproline levels by colorimetric assay, and the remaining lung lysate was saved for future analyses. For the morphological assessments, the left lung was inflation-fixed at 25 cm of water pressure with 4% paraformaldehyde in PBS for 1 minute, processed, and then sectioned. Morphological analysis of the lung was conducted using H&E-stained slides. Additional histologic stains for morphological analyses included Masson's Trichrome staining with Ashcroft scoring to determine severity of fibrosis.

[2] = tested on: idiopathic pulmonary fibrosis (bleomycin); experiment: Bleomycin IPF model: functional lung volume by micro-CT; type: in vivo, C57BI/6J mice; design: Functional Lung Volume, Mean: unit not given here; details: Day 21
Method: Animals were acclimated for two weeks prior to study initiation, and were randomized into the experimental groups outlined in Table 32. Intratracheal (IT) administration of Bleo or PBS control was conducted at the start of the study (Day 0). […] Following administration of Bleo, animals (n=10/group) were included in the study if they met the following guidelines on Day 7: […] Micro-CT imaging was also performed on Day 7 to determine relative fibrosis and on Day 21. […] Images were acquired with a respiratory gated technique with the following parameters: X-ray tube voltage: 90 KV; X-ray tube current: 88 μA; total scan time: 4 minutes. The system was calibrated monthly with standard phantoms for noise, uniformity, low contrast, and resolution to ensure consistency.

lupus = experiment: SLE (lupus) model: kidney histology lesion scores; type: in vivo, MRL/MpJ-Faslpr mice; details: for Total Glomerular Lesion (mean score) / Total Glomerular Lesion (table title: Mean Total Kidney Lesion Scores) / Total Tubular and Interstitial Lesion (mean score) / Mean total glomerular lesion score / Mean total kidney lesion score / Mean total tubular and interstitial lesion score: Week 19
Method: Female MRL/MpJ-Faslpr mice (The Jackson Laboratory) were used to assess the efficacy of Compound A in treating lupus. Starting when animals were 10 weeks of age, protein concentration in urine was measured using urine dipsticks.
At the start of the study, each group in the study had two animals that were 9 weeks old, and all others were 10 weeks old. Dosing of all animals with the test compounds began when the older animals were 11 weeks old. […] […] Dosing was at a consistent time each dosing day throughout the study.
Compound A may be formulated as illustrated in Experimental Method A (see Table 2E.). […] A stock solution of Compound A in DMSO (stock solution concentration of Compound A of 40 mg/mL) was prepared and aliquots for weekly preparations were frozen at −20° C. On each preparation day, a stock solution aliquot was thawed and diluted with other vehicle components to the desired concentration. Formulated Compound A and vehicle were at room temperature for dosing.
The study began when the older animals were 11 weeks old, and concluded when the older animals were 19 weeks old. Body weight was recorded once a week, with the exception of two weight measurements taken the first week of the study (when the older animals were 11 weeks old). Proteinuria was measured in the urine of animals with urine dipsticks once a week, starting when the older animals were 10 weeks old. […] Blood samples were taken retro-orbitally at the start of the study to establish a baseline (15 animals, 3 per group), and when the older animals were 16 weeks (all animals) and when animals were 19 weeks (all animals) at the conclusion of the study. Blood urea nitrogen (BUN) was measured in all animals at study termination in blood samples. After blood collection, animals were euthanized, perfused with PBS, and the left kidneys were collected and weighed and fixed in 10% buffered formalin. Left kidneys were then processed to a formalin-fixed, paraffin-embedded (FFPE) block, and histology was analyzed in Periodic Acid-Schiff-stained sections (1 section per slide), using the criteria described in Alperovich et al., Lupus, 16:18-24 (2007). Right kidneys were weighed and snap-frozen at −80° C. Spleens were also collected and weighed. SLE in animals treated with a BET inhibitor and vehicle.

[3] = Bleo + Compound A (1 mg/kg) OG QOD from D7
[4] = Bleo + Compound A (3 mg/kg) OG QOD from D7
[5] = Bleo + Compound A (10 mg/kg) OG QOD from D7

`Cn1cc(-c2ccccc2)c(-c2cn(C)c(=O)c3[nH]c(-c4cnn(C(F)(F)F)c4)cc23)cc1=O` [Compound A, 6-methyl-4-(1-methyl-2-oxo-5-phenyl-1,2-dihydropyridin-4-yl)-2-(1-(trifluoromethyl)-1H-pyrazol-4-yl)-1,6-dihydro-7H-pyrrolo[2,3-c]pyridin-7-one] was tested, and the “Ashcroft Scoring, Max” value [1, 3] was 7, the “Ashcroft Scoring, Mean” value [1, 3] was 5.25 and the “Ashcroft Scoring, Min” value [1, 3] was 4. The “Ashcroft Scoring, Max” value [1, 4] was 5, the “Ashcroft Scoring, Mean” value [1, 4] was 4.416 and the “Ashcroft Scoring, Min” value [1, 4] was 3. For the same molecule, the “Ashcroft Scoring, Max” value [1, 5] was 5, the “Ashcroft Scoring, Mean” value [1, 5] was 3.708 and the “Ashcroft Scoring, Min” value [1, 5] was 2. The “Ashcroft scores relative to IPF control group” value ([1]; 1, 3, 10 mg/kg) was “decreased Ashcroft scores”, the “Ashcroft scores relative to IPF control group” value ([1]; Group 5, 10 mg/kg) was “significantly reduced Ashcroft scores” and the “Fibrosis in lung tissue (Masson's Trichrome) compared to Group 2 (Bleo+Saline)” value ([1]; Group 5 (Compound A 10) and Group 6 (Pirfenidone)) was “qualitatively diminished”. For the same molecule, the “Functional Lung Volume, Mean” value [2, 3] was 283.165, the “Functional Lung Volume, Mean” value [2, 4] was 343.5975 and the “Functional Lung Volume, Mean” value [2, 5] was 452.7838. For the same molecule, the “Mean improvement in functional lung volume compared to Group 2” value ([2]; Group 5, 10 mg/kg) was roughly 52.7%, the “Total Glomerular Lesion (mean score)” value (lupus; Compound A 1 mg/kg PO QD) was 3.9 and the “Total Glomerular Lesion (table title: Mean Total Kidney Lesion Scores)” value (lupus; Compound A 1 mg/kg PO QD) was 5.1. The “Total Tubular and Interstitial Lesion (mean score)” value (lupus; Compound A 1 mg/kg PO QD) was 1.2, the “Total Glomerular Lesion (mean score)” value (lupus; Compound A 3 mg/kg PO QD) was 2.7 and the “Total Glomerular Lesion (table title: Mean Total Kidney Lesion Scores)” value (lupus; Compound A 3 mg/kg PO QD) was 3.8. The “Total Tubular and Interstitial Lesion (mean score)” value (lupus; Compound A 3 mg/kg PO QD) was 1.1, the “Total Glomerular Lesion (mean score)” value (lupus; Compound A 10 mg/kg PO QD) was 1.1 and the “Total Glomerular Lesion (table title: Mean Total Kidney Lesion Scores)” value (lupus; Compound A 10 mg/kg PO QD) was 1.6. The “Total Tubular and Interstitial Lesion (mean score)” value (lupus; Compound A 10 mg/kg PO QD) was 0.5, the “Mean total glomerular lesion score” value (lupus; 1 mg/kg) was “about 3.9” and the “Mean total kidney lesion score” value (lupus; 1 mg/kg) was “about 5.1”. The “Mean total tubular and interstitial lesion score” value (lupus; 1 mg/kg) was “about 1.2”, the “Mean total glomerular lesion score” value (lupus; 3 mg/kg) was “about 2.7” and the “Mean total kidney lesion score” value (lupus; 3 mg/kg) was “about 3.8”. For the same molecule, the “Mean total tubular and interstitial lesion score” value (lupus; 3 mg/kg) was “about 1.1”, the “Mean total glomerular lesion score” value (lupus; 10 mg/kg) was “about 1.1” and the “Mean total kidney lesion score” value (lupus; 10 mg/kg) was “about 1.6”. For the same molecule, the “Mean total tubular and interstitial lesion score” value (lupus; 10 mg/kg) was “about 0.5” and the “Kidney histology images (FIGS. 30H-30L), disease suppression” value (lupus; increasing dosage) was “dose dependent improvement in disease suppression”.

— patent US20260217701A1, “SELECTIVE BET INHIBITORS AND USES THEREOF” (Tay Therapeutics Limited, priority 2022, published 2026)
